From paper PMC5641865, “A screen for kinase inhibitors identifies antimicrobial imidazopyridine aminofurazans as specific inhibitors of the Listeria monocytogenes PASTA kinase PrkA” (The Journal of Biological Chemistry, 2017)
Where two headings read alike, the source gives them in different places.

Key:
Assay type in all cases: biochemical
[1] = target: T1, PrkA kinase domain; PrkA(1-338) (Listeria monocytogenes, UniProt A0A0H3GI69); experiment: Kinase-Glo ATP depletion assay
T1 construct: gene LMRG_00967; cytosolic kinase domain, residues 1-338, pGEX-2T GST fusion from E. coli Rosetta BL21, GST cut off with thrombin
From the text: Kinase-Glo ATP depletion assay on PrkA kinase domain; PrkA(1-338)

Stk1 kinase domain [2] = target: T2, Stk1 kinase domain (Staphylococcus aureus, UniProt A0A0H2XGG5); experiment: Kinase-Glo ATP depletion assay
T2 construct: gene pknB; cytosolic kinase domain, residues 1-348, pGEX-2T GST fusion from E. coli Rosetta BL21, GST cut off with thrombin; Mn2+ in place of Mg2+

Stk1 kinase domain [3] = target: T2, Stk1 kinase domain; experiment: kinase inhibition assay (supplement)
[4] = read-out: Relative IC50 (95% CI)

T1 sequence (A0A0H3GI69 entry or part of it): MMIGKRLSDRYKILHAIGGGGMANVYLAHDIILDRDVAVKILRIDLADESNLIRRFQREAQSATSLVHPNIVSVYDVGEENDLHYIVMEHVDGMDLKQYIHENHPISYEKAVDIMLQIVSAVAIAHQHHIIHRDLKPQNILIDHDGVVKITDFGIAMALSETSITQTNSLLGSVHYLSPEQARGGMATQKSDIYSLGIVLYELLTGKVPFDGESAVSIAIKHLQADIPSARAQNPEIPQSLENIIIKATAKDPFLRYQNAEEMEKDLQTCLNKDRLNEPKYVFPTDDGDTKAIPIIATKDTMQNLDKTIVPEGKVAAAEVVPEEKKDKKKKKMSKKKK
T2 sequence (A0A0H2XGG5 entry or part of it): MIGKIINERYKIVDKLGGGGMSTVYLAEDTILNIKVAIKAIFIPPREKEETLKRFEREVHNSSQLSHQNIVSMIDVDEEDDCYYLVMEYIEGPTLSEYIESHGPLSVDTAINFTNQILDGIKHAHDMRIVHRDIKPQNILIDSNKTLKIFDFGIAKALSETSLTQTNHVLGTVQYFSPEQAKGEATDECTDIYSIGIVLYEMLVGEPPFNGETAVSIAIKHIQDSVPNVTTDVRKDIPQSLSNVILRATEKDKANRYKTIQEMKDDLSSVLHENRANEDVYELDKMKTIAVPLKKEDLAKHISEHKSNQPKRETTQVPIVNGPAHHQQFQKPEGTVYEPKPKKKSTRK

CCn1c(-c2nonc2N)nc2c(C#CC(C)(C)O)nc(OCCN)cc21 [GSK902056A]
IC50 [1, 4]: 410 nM

CCn1c(-c2nonc2N)nc2c(C#CC(C)(C)O)ncc(OC[C@H]3CCCNC3)c21 [GSK690693]
IC50 (Stk1 kinase domain [2]): > 40000 nM | IC50 [1, 4]: 840 nM

O=C1Nc2ccccc2C1=C1Nc2ccccc2C1=NO [indirubin-3′-monoxime]
kinase inhibition assay (supplement) (Stk1 kinase domain [3]): Stk1 can be biochemically inhibited by the kinase inhibitor indirubin-3′-monoxime

CCn1c(-c2nonc2N)nc2c(C#CC(C)(C)O)ncc(OC[C@@H]3CCCN3)c21 [GSK614526A]
IC50 [1]: 420 nM

CCn1c(-c2nonc2N)nc2c(C#CC(C)(C)O)ncc(OCC3CCNCC3)c21 [GSK554170A]
IC50 [1, 4]: 450 nM
